For assay [1], the target named is T1, Thromboxane A2 receptor (Homo sapiens) (UniProt P21731).
T1 sequence (whole entry): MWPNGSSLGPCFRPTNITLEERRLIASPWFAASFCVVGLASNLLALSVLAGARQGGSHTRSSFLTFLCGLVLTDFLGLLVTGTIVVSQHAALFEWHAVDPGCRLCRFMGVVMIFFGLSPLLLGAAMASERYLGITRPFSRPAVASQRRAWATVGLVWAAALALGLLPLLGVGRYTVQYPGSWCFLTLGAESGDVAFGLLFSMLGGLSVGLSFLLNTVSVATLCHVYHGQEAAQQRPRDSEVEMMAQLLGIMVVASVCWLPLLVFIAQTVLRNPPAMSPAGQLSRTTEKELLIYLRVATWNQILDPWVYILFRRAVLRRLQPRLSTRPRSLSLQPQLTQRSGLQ
Nature of the assay: Thromboxane A2 receptor binding affinity was evaluated, which is expressed as competition factor (CF = (IC50-test) / (IC50-standard).

Assay [2] has as its target T1, Thromboxane A2 receptor (Homo sapiens). Nature of the assay: Thromboxane A2 receptor binding affinity was evaluated, which is expressed as competition factor (CF = (IC50-test) / (IC50-standard); not parallel.
The species entered for assay [3] is Homo sapiens. Nature of the assay: Compound was evaluated for the inhibition of platelet aggregation, assessed turbidimetrically in citreated human platelet rich plasma (PRP); NE means not effective. The assay is classed as functional, organism-based.
Assay [4] addresses T1, Thromboxane A2 receptor (Homo sapiens). Kind of assay: Thromboxane A2 receptor binding affinity was evaluated as competition factor (CF = (IC50-test) / (IC50-standard).

Take `O=C(O)COCCCC[C@H]1[C@H](F)CC[C@@H]1NS(=O)(=O)c1ccc(F)cc1F`: the CF in assay [1] stood at 30.
In turn, `O=C(O)COCCCC[C@H]1[C@H](F)CC[C@@H]1NS(=O)(=O)c1ccc(F)cc1` showed a CF in assay [2] of 2.7.
With `O=C(O)CCC/C=C\CC1=CCC[C@@H]1CNS(=O)(=O)c1ccc(F)cc1`, the CF in assay [1] was found to be 17.
Turning to `O=C(O)CCC/C=C\CC1=CCC[C@@H]1NS(=O)(=O)c1ccc(Cl)cc1`, the IC50 result in assay [3] is listed as “Not Active”. Also, the CF in assay [1] was 0.3.
Turning to `O=C(O)CC/C=C\CC1=CCC[C@@H]1NS(=O)(=O)c1ccccc1`, the CF in assay [1] stood at 12.
Still for that read-out and setting: for `Cc1ccc(S(=O)(=O)NC[C@H]2CC[C@@H](F)[C@@H]2C/C=C\CCC(=O)O)cc1` the value was 154; for `O=C(O)CCC/C=C\CC1=CCC[C@@H]1NS(=O)(=O)c1ccccc1`, 3.5; for `O=C(O)CCC/C=C\CC1=CCC[C@@H]1NS(=O)(=O)c1ccc2ccccc2c1`, 0.3.
The compound `O=C(O)CCC/C=C\CC1=CCC[C@@H]1NS(=O)(=O)c1ccccc1[N+](=O)[O-]` came in with a CF in assay [1] of 6.6.
Same read-out and setting: the figure for `O=C(O)CCCC=CCC1=CCC[C@@H]1NS(=O)(=O)c1cccc2cccnc12` is 560; for `O=C(O)COCCCCC1=CCC[C@@H]1NS(=O)(=O)c1ccccc1` it is 26.
Turning to `O=C(O)CCCCCCC1=CCC[C@@H]1NS(=O)(=O)c1ccc(F)cc1`, in assay [1], the CF amounted to 2.7.
In turn, `O=C(O)CCC/C=C\CC1=CCC[C@@H]1NS(=O)(=O)c1ccc(F)cc1` (stereo in doubt; 3d) registered a CF in assay [1] of 1.5.
Regarding `O=C(O)CCC/C=C\CC1=CCC[C@@H]1NS(=O)(=O)c1ccc(F)cc1` (stereo in doubt), the CF in assay [1] stood at 1.5.
In turn, `O=C(O)CC/C=C\C[C@@H]1[C@@H](CNS(=O)(=O)c2ccc(F)cc2)CC[C@@H]1F` returned a CF in assay [1] of 11.
As for `O=C(O)CCC/C=C\C[C@H]1[C@H](F)CC[C@@H]1NS(=O)(=O)c1ccc(F)cc1F`, the CF in assay [1] worked out at 1.1.
Still for that read-out and setting: the figure for `O=C(O)CC/C=C\CC1=CCC[C@@H]1CNS(=O)(=O)c1ccc(F)cc1` is 21; for `O=C(O)CCC/C=C\C[C@H]1[C@H](F)CC[C@@H]1NS(=O)(=O)c1ccccc1[N+](=O)[O-]` it is 10.
For `Cc1ccc(S(=O)(=O)N[C@H]2CC[C@@H](F)[C@@H]2C/C=C\CCC(=O)O)cc1`, in assay [1], the CF is 5.1.
On the same count and under the same terms, for `O=C(O)CC/C=C\C[C@H]1[C@H](F)CC[C@@H]1NS(=O)(=O)c1ccc(F)cc1` the value was 4.3; for `Cc1ccc(S(=O)(=O)N[C@H]2CCC=C2C/C=C\CCCC(=O)O)cc1`, 1.5.
`O=C(O)COCCCCC1=CCC[C@@H]1CNS(=O)(=O)c1ccc(F)cc1` returned a CF in assay [2] of 0.5.
Consider `Cc1ccc(S(=O)(=O)NC[C@H]2CC[C@H](F)[C@@H]2C/C=C\CCC(=O)O)cc1`, for which the IC50 result in assay [3] is on record as “Not Active”. Besides, the CF in assay [2] was 6.
Turning to `O=C(O)COCCCCC1=CCC[C@@H]1NS(=O)(=O)c1ccc(F)cc1`, the CF in assay [1] was 13.
`O=C(O)CCC/C=C\C[C@H]1[C@H](F)CC[C@@H]1NS(=O)(=O)c1ccc(Cl)cc1` yielded a CF in assay [1] of 0.3.
The same measure, in the same setting: for `O=C(O)CC/C=C\CC1=CCC[C@@H]1NS(=O)(=O)c1ccc(F)cc1` the value was 5.5; for `O=C(O)CC/C=C\C[C@H]1[C@H](F)CC[C@@H]1NS(=O)(=O)c1ccccc1[N+](=O)[O-]`, 370.
In assay [1], `O=C(O)CC/C=C/C[C@H]1[C@H](F)CC[C@@H]1NS(=O)(=O)c1ccc(F)cc1F` yielded a CF of 6.6.
In turn, `Cc1ccc(S(=O)(=O)N[C@H]2CC[C@@H](F)[C@@H]2C/C=C\CCCC(=O)O)cc1` registered a CF in assay [1] of 1.5.
As to `O=C(O)CCC/C=C\CC1=CCC[C@@H]1NS(=O)(=O)c1ccc(F)cc1F`, the IC50 entry in assay [3] is “Not Active”. In addition, in assay [1], the CF is 1.5.
On to `O=C(O)CC/C=C\C[C@@H]1[C@@H](CNS(=O)(=O)c2ccc(Cl)cc2)CC[C@@H]1F`, for which, in assay [3], the IC50 result was “Not Active”. The CF in assay [2] was determined as 1.8.
In assay [1], `O=C(O)CCC/C=C\C[C@H]1[C@H](F)CC[C@@H]1NS(=O)(=O)c1ccc2ccccc2c1` came in with a CF of 0.3.
Turning to `Cc1ccc(S(=O)(=O)N[C@H]2CC[C@@H](F)[C@@H]2CCCCOCC(=O)O)cc1`, the CF in assay [2] was found to be 3.5.
`Cc1ccc(S(=O)(=O)N[C@H]2CCC=C2CCCCOCC(=O)O)cc1`: the CF in assay [1] was 11.
Take `O=C(O)COCCCC[C@@H]1[C@@H](CNS(=O)(=O)c2ccc(F)cc2)CC[C@H]1F`: the CF in assay [2] was determined as 6.7.
Consider `O=C(O)CC/C=C\CC1=CCC[C@@H]1NS(=O)(=O)c1ccc(F)cc1F`, for which, in assay [1], the CF came out at 14.
On to `O=C(O)COCCCC[C@H]1[C@H](F)CC[C@@H]1NS(=O)(=O)c1ccc(Cl)c(Cl)c1`, for which the IC50 result in assay [3] was “Not Active”. The same compound had a CF in assay [1] of 2.3.
As to `O=C(O)CC/C=C\CC1=CCC[C@@H]1NS(=O)(=O)c1ccccc1[N+](=O)[O-]`, the CF in assay [1] was determined as 40.
With `O=C(O)COCCCC[C@H]1[C@H](F)CC[C@@H]1NS(=O)(=O)c1ccccc1[N+](=O)[O-]`, in assay [1], the CF is 330.
With `O=C(O)COCCCCC1=CCC[C@@H]1NS(=O)(=O)c1ccc(Cl)cc1`, the IC50 result in assay [3] is “Not Active”. The CF in assay [1] turned out to be 2.6.
As to `O=C(O)CCCCCC[C@H]1[C@H](F)CC[C@@H]1NS(=O)(=O)c1ccc(F)cc1`, the CF in assay [1] amounted to 7.5.
On the same count and under the same terms, the figure for `O=C(O)CC/C=C\C[C@@H]1[C@@H](CNS(=O)(=O)c2ccc(F)cc2)CC[C@H]1F` (stereo in doubt; form 2) is 300; for `O=C(O)CC/C=C\C[C@@H]1[C@@H](CNS(=O)(=O)c2ccc(F)cc2)CC[C@H]1F` (stereo in doubt; form 1) it is 300.
In turn, `O=C(O)CC/C=C\CC1=CCC[C@@H]1NS(=O)(=O)c1ccc(Cl)cc1` had a CF in assay [1] of 2.8.
In the case of `O=C(O)CCCCCC[C@@H]1[C@@H](CNS(=O)(=O)c2ccc(F)cc2)CC[C@H]1F`, the CF in assay [1] is 260.
In the case of `O=C(O)CC/C=C\C[C@@H]1[C@@H](CNS(=O)(=O)c2ccc(Cl)cc2)CC[C@H]1F`, the CF in assay [1] was found to be 40.
As to `Cc1ccc(S(=O)(=O)N[C@H]2CCC=C2C/C=C\CCC(=O)O)cc1`, the CF in assay [1] was found to be 7.4.
`O=C(O)CCC/C=C\C[C@H]1[C@H](F)CC[C@@H]1NS(=O)(=O)c1ccccc1` returned a CF in assay [1] of 4.
In turn, `O=C(O)CCCCC[C@@H]1[C@@H](CNS(=O)(=O)c2ccc(F)cc2)CC[C@H]1F` gave a CF in assay [1] of 380.
Compound `O=C(O)COCCCCC1=CCC[C@@H]1NS(=O)(=O)c1ccc(Cl)c(Cl)c1` had a CF in assay [1] of 7.6.
Compound `O=C(O)CC/C=C\C[C@H]1[C@H](F)CC[C@@H]1NS(=O)(=O)c1ccc(Cl)c(Cl)c1` came in with a CF in assay [4] of 1.4.
For the compound `O=C(O)COCCCC[C@H]1[C@H](F)CC[C@@H]1NS(=O)(=O)c1ccc(Cl)cc1`, the IC50 entry in assay [3] was “Not Active”. This compound came in with a CF in assay [1] of 0.8.
Compound `O=C(O)COCCCCC1=CCC[C@@H]1NS(=O)(=O)c1ccc(F)cc1F` gave a CF in assay [1] of 22.
As for `O=C(O)CC/C=C\C[C@H]1[C@H](F)CC[C@@H]1NS(=O)(=O)c1ccccc1`, the CF in assay [1] turned out to be 10.
Same read-out and setting: for `O=C(O)CCC/C=C\C[C@H]1[C@H](F)CC[C@@H]1NS(=O)(=O)c1cccc2cccnc12` the value was 340.
For the compound `O=C(O)CCC/C=C\C[C@H]1[C@H](F)CC[C@@H]1NS(=O)(=O)c1ccc(Cl)c(Cl)c1`, the CF in assay [1] came to 0.5.
Consider `O=C(O)CC/C=C\CC1=CCC[C@@H]1NS(=O)(=O)c1ccc(Cl)c(Cl)c1`, for which the CF in assay [1] is 13.
`O=C(O)CCC/C=C\CC1=CCC[C@@H]1NS(=O)(=O)c1ccc(Cl)c(Cl)c1`: the IC50 entry in assay [3] was “Not Active”. Besides, in assay [1], the CF was 1.1.
Take `O=C(O)CC/C=C\C[C@H]1[C@H](F)CC[C@@H]1NS(=O)(=O)c1ccc(Cl)cc1`: the CF in assay [1] is 1.3.
With `O=C(O)CCCC=CC[C@H]1[C@H](F)CC[C@@H]1NS(=O)(=O)c1ccc(F)cc1`, the CF in assay [1] turned out to be 1.5.
`O=C(O)CCC/C=C\C[C@@H]1[C@@H](CNS(=O)(=O)c2ccc(F)cc2)CC[C@H]1F` yielded a CF in assay [1] of 50.
The compound `O=C(O)COCCCCC1=CCC[C@@H]1NS(=O)(=O)c1ccccc1[N+](=O)[O-]` had a CF in assay [1] of 130.
In assay [2], `O=C(O)CC/C=C\C[C@@H]1[C@@H](CNS(=O)(=O)c2ccc(F)cc2)CC[C@H]1F` displayed a CF of 11.
`O=C(O)COCCCC[C@H]1[C@H](F)CC[C@@H]1NS(=O)(=O)c1ccccc1` came in with a CF in assay [2] of 9.1.
`O=C(O)CCC/C=C\C[C@H]1[C@H](F)CC[C@@H]1NS(=O)(=O)c1ccc(F)cc1` displayed a CF in assay [1] of 1.5.

For the origin of these results see ChEMBL document CHEMBL1128161, “Novel prostanoid thromboxane A2 antagonists” (Bioorg Med Chem Lett, 1995).
